From paper PMC4436313, “Novel Heparan Sulfate-Binding Peptides for Blocking Herpesvirus Entry” (PLoS ONE, 2015)
Ends that are not written are not given here.

Key:
MEF 10.1 cells = experiment: Visualization of bound biotinylated peptide by fluorescence microscopy; format: binding, Mouse; conditions: biotinylated peptide 1.6 μg/mL in PBS overnight at 4°C, fixed MEF cells, Alexa Fluor 594-conjugated streptavidin
Description: Coverslips with fixed MEF cells were prepared, washed in PBS, and blocked with 1% BSA/PBS for 5 min. Following a PBS wash, the nuclei were stained using Hoechst (Life Technologies Molecular Probes, Grand Island, NY) 1:100 in H2O for 30 min at 37°C. Cells were then blocked using a casein block solution (Scytek) for 5 min, AVIDIN/Biotin blocks (VECTOR) for 20 min each at room temperature (RT) followed by a 5 min PBS wash. Biotinylated p5+14 or CGGY-p5G (control) at 1.6 μg/mL in PBS was added and incubated overnight at 4°C. Following a PBS wash Alexa Fluor 594-conjugated streptavidin (Molecular Probes) was added at a 1:200 dilution in PBS for 1h at RT. Cells were then permeabilized with 0.2% Triton X-100 (Sigma) in PBS for 10 min at RT and washed with a solution of 1% BSA in PBS for 30 min. The cells were then stained with Alexa Fluor 488-conjugated phalloidin (Molecular Probes) at a 1:100 dilution of stock in 1% BSA/PBS, for 45 min at RT to visualize actin filaments. Slides were cover-slipped using a fluorescent mounting medium (Dako) to minimize photobleaching.
Fig 2 p5+14 binding to cells is charge dependent. (A) Predicted α-helix structure of peptide p5+14 based on ITASSER modeling. (B) Biotinylated peptide p5+14 (left panel) or CGGY-p5G (right panel) was added to MEF 10.1 cells followed by addition of Alexa Fluor 594-conjugated streptavidin (red). […]

[1] = system: HCMV TB40/E-pp150-GFP adsorption to HFF cells; experiment: Flow cytometric analysis of attached virus; format: cell-based, Human cytomegalovirus; conditions: peptide 100μM, HFF cells at 4°C, 1/2 h, then HCMV TB40/E pp150-GFP MOI 10 for 1h; GFP MFI vs PBS treated cells; 3 replicates
Description: HFF cells were grown in a 24 well dish and allowed to reach ~80% confluency. The cells were cooled to 4°C to prevent virus internalization before addition of peptide (100μM) and incubated for ½ h. Following the incubation, HCMV TB40/E pp150-GFP was added (MOI 10) at 4°C and incubated for 1h. Following the incubation, cells were removed from the wells using non-enzymatic cell stripper solution (Corning), fixed (with paraformaldehyde) and the data acquired using a BD FACS Calibur flowcytometer (BD Biosciences). The data was analyzed using FlowJo software (TreeStar).
Fig 5 Peptide p5+14 blocks adsorption of MCMV. (A) MCMV was preincubated with p5+14 peptide (100 μM) before diluting the virus/peptide to an ineffective peptide concentration (1 μM) and assayed in the plaque reduction assay as described in materials and methods. As a control, virus and peptide (100 μM) were added to cells simultaneously. […] Plaque reduction was measured in a plaque reduction assay. […] (C) Adsorption of HCMV TB40/E-pp150-GFP (MOI 10) fusion protein expressing HCMV was measured via flowcytometry in the presence of p5+14 (green), control peptide CGGY-p5G (orange) and PBS (blue). […] Inset is a scatter plot of the mean fluorescence intensity (MFI) for GFP with the line representing average of 3 replicates +/- SD for the different treatments.

MCMV [2] = conditions: for Plaque Reduction (Average from Fig 1): peptide 500 μg/ml, incubated with MEF 10.1 cells 30 min prior to MCMV (~100 pfu/well), percent reduction vs PBS-treated control, three independent experiments, at least three replicates each
Description: Peptides were screened for their ability to reduce viral infection using a plaque reduction assay. Cells were cultured in 12-well (VERO) or 24-well culture plates (MEF 10.1 and HFF). When cells reached ~80% confluence the media was removed and washed once with PBS before addition of peptide. As a control, cells were incubated with PBS alone. After a 30 min incubation with peptide in PBS, virus (~100 pfu/well for MCMV and ~30–40 pfu/well for HCMV and HSV) was added and incubated for another 90 min (HSV and HCMV) or 60 min (MCMV). Following virus incubation the peptide/virus mixture was removed and replaced with 0.75% carboxymethyl cellulose (Sigma Aldrich, St. Louis, MO) (CMC) + complete media (DMEM + P/S + L-Gln) for MCMV and HSV experiments or 0.5% agarose (Lonza, Rockland, ME) in complete media for HCMV experiments. The plates were incubated at 37° C in 5% CO2 for 4 days and when plaques began to develop, plates were stained with Coomassie stain (AMRESCO, Solon, Ohio). Due to the inability of HCMV to form distinct plaques on HAEC and ARPE-19 cells, infection in these cell types was measured by counting mCherry positive foci 14 days post infection. Plaques were counted manually using a dissection microscope. Data was analyzed using Prism 5.0 (GraphPad Software, La Jolla, CA). Data were expressed as percent infection (100 x (number of plaques after treatment/ the number of plaques in the PBS-treated wells)).
Seven synthetic peptides based on the structure of peptide p5 were screened for their ability to reduce MCMV infection in vitro (Table 1). In the initial screening assays all peptides were tested at a single concentration (500 μg/ml) using a plaque-reduction assay, in which mouse embryonic fibroblasts were incubated with the peptides for 30 min prior to the addition of virus.
(A) Peptides (500 μg/ml) with different net charges and lengths were incubated with cells 30 min prior to addition of MCMV (~100 pfu/well). Bars represent the average of the percent reduction in infection compared to PBS-treated control from three independent experiments with at least three replicates in each + SD. (B) p5+14 and CGGY-p5G (control peptide) were serially diluted and assayed in a plaque reduction assay as described in materials and methods.

MCMV [3] = experiment: Heparin blockade of peptide-mediated plaque reduction; format: cell-based, murine CMV (MCMV)
Description: Peptide p5+14 (100 μM) was pre-incubated with heparin sodium salt (Acros Organics, NJ) at different concentrations for 1 h at 37°C. This heparin/peptide mix was added to the cells and incubated for 30 min at 37°C. Following the incubation, supernatant was aspirated and cells washed once with PBS to remove unbound/excess heparin or peptide. The cells were subsequently infected with ~100 pfu/well of MCMV. To test whether heparin treatment of cells interferes with virus infection, MEF 10.1 cells in a 24 well dish were pre-incubated with different concentrations of heparin for 1 hour and washed as described above. Following this pre-incubation, infection was initiated as described above. Finally to test the effect of heparin treatment on the infectivity of virus, MCMV was incubated with different concentrations of heparin for 1h before infecting cells. For all treatments, virus was removed 1h post infection and cells were overlaid with CMC. Plates were incubated for 4 days before staining and counting the plaques.
Fig 3 Soluble heparin interferes with peptide inhibition of virus infection. The effect of heparin on the activity of peptide and MCMV viral infectivity in vitro when (A) pre-incubated with the peptide (100 μM), (B) incubated with the cells before adding virus, and (C) pre-incubated with virus alone in a plaque reduction assay. […]

[4] = Self-aggregation of peptide (data not shown); format: physicochemical

CGGYSGAQGAQAGQAGQAQGAQGAQAGQAGQ [CGGY-p5G, uncharged p5 variant, replaces Lys with Gly throughout; control peptide]
Binding of biotinylated peptide to mouse fibroblasts (MEF 10.1 cells): did not bind | Fluorescent virus attached to the cell surface [1]: no reduction in fluorescence

GGGYSKAQKAQAKQAKQAQKAQKAQAKQAKQ [p5]
Plaque Reduction (Average from Fig 1) (MCMV [2]): ~53%

heparin sodium salt
Reduction of infection, heparin pre-incubated with MCMV (MCMV [3]; MCMV incubated with heparin 1 h without peptide, all heparin concentrations ≥ 2 μg/mL): > 80% | MCMV infection after pre-incubation of the cells with heparin (MCMV [3]; MEF 10.1 cells pre-incubated with heparin 1 hour and washed prior to virus addition, no peptide): did not alter MCMV infection

GGGYSKAQKAQAKQAKQAQKAQKAQAKQAKQAQKAQKAQAKQAKQ [p5+14]
IC50 (MCMV [2]; read-out: IC50, reduction of MCMV infection, serial dilution of peptide, plaque reduction assay, MEF 10.1): 5.2 µM

GGGYSRAQRAQARQARQAQRAQRAQARQARQ [p5R]
Blocking of viral infection compared to peptide p5 (MCMV [2]; from Fig 1A, 500 μg/ml, MCMV): 2 fold | Plaque Reduction (Average from Fig 1) (MCMV [2]): ~75%

MPRRR RIRRR QK [G2, reference compound]
Reduction in MCMV infection at 10 μM (MCMV [2]; peptide 10 μM, plaque reduction assay, comparison p5+14 vs G2): ineffective | Inhibition of MCMV infection at 100 μM (MCMV [2]; peptide 100 μM, plaque reduction assay, comparison p5+14 vs G2): effectively inhibited MCMV infection

CGGYSKAQKAQAKQAKQAQKAQKAQAKQAKQ [CGGY-p5, p5 variant with N-terminal Cys residue generated to facilitate incorporation of 99mTc]
Plaque Reduction (Average from Fig 1) (MCMV [2]): ~61% | Self-aggregation [4]: prone to self-aggregation
